Several values for one entry are separate records, joined by “and”; a condition that tells them apart may be missing. Equal entries are not always repeated. Where two headings read alike, the source gives them in different places.
How the values were obtained:
[1] = Protocol: The amplitude and rate of the observed depolarization was reduced by the removal of extracellular Na^+ concentration. […] This reduction effect was more pronounced in the absence of extracellular Na^+ and in cells that were not pre-incubated with the compound.
[2] = system: voltage-gated sodium channels; format: cell-based, human
Na^+ channels = format: cell-based, human; settings: read-out: Tetrodotoxin IC50

COc1cc(N)c(Cl)cc1C(=O)NC1CCN(CCCOc2ccc(F)cc2)CC1OC (stereo not shown) [cisapride]
KCl-induced plasma membrane depolarization [1]: reduced

Charybdotoxin
Rate (% change/ s) ([2]; 100 nM, 30 min pre-incubation, 8 V train of 750 μs pulses, 8 pulses per s for 3 s): 0.115 ± 0.013 % change/ s
Amplitude (% max) ([2]; 100 nM, 30 min pre-incubation, 8 V train, % of maximal depolarization with 50 mM KCl): 34.09 ± 0.326 % max

COc1ccc(CCN(C)CCCC(C#N)(c2ccc(OC)c(OC)c2)C(C)C)cc1OC (stereo not shown) [Verapamil]
Amplitude (% max) [2]: 32.84 ± 0.330 % max
Rate (% change/ s) [2]: 0.141 ± 0.014 % change/ s

NC1=N[C@H](O)[C@H]2[C@H]3O[C@]4(O)O[C@@H]([C@@H](O)[C@@]2(N1)[C@@H]4O)[C@]3(O)CO [TTX, tetrodotoxin]
Amplitude (% max) [2]: 24.260 ± 0.290 % max
Rate (% change/ s) [2]: 0.001 ± 0.001 % change/ s
effect on voltage-induced depolarizations [2]: blocked the depolarizations in a dose-dependent manner
voltage-induced changes in plasma membrane potential [2]: completely abolished
IC50 ([2]; read-out: IC50 for block of voltage-induced depolarizations): ~9 nM
IC50 (Na^+ channels): 9.5 nM and 6.69 nM

Clc1ccccc1C(c1ccccc1)(c1ccccc1)n1ccnc1 [Clotrimazole]
Rate (% change/ s) ([2]; 1 μM, 30 min pre-incubation, 8 V train of 750 μs pulses, 8 pulses per s for 3 s): 0.124 ± 0.024 % change/ s
Amplitude (% max) ([2]; 1 μM, 30 min pre-incubation, 8 V train, % of maximal depolarization with 50 mM KCl): 33.92 ± 0.320 % max
